According to US12655142B2 (Merck Patent GmbH, priority 2019, dated 2026):
pIC50: −log10 of the molar value.

Tests used:
[1] = target: T1, c-Kit(V654A) (Homo sapiens, UniProt P10721, V654A); test: c-Kit(V654A) assay (33P-ATP filter binding kinase assay); assay type: biochemical; settings: recombinant human c-Kit aa 544-end V654A, ATP 200 μM
T1 construct: recombinant human c-Kit, amino acids 544-end containing the V654A mutation; GST (N)
How it was run: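 Radiometric filter-binding read-out: substrate 33P incorporation counted by scintillation after P30 filtermat washes in 75 mM phosphoric acid and methanol. Enzyme: N-GST recombinant human c-Kit aa 544-end carrying V654A.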

[2] = target: T2, GIST430/654 cell line expressing mutated constitutively active cKIT receptor tyrosine kinase (Δ560-576 deletion and V654A point mutation) (Homo sapiens, UniProt P10721, DEL560-576/V654A); test: Cellular cKIT autophosphorylation (phospho-Y307-cKIT, Luminex bead assay) in GIST430/654 cells; assay type: cell-based; settings: compounds 45 min, read-out: GIST 430/654 IC50
T2 construct: endogenous in cells; host or cells: GIST430/654 cells
T2 sequence (P10721 with tags, fused parts or gaps DEL560-576/V654A): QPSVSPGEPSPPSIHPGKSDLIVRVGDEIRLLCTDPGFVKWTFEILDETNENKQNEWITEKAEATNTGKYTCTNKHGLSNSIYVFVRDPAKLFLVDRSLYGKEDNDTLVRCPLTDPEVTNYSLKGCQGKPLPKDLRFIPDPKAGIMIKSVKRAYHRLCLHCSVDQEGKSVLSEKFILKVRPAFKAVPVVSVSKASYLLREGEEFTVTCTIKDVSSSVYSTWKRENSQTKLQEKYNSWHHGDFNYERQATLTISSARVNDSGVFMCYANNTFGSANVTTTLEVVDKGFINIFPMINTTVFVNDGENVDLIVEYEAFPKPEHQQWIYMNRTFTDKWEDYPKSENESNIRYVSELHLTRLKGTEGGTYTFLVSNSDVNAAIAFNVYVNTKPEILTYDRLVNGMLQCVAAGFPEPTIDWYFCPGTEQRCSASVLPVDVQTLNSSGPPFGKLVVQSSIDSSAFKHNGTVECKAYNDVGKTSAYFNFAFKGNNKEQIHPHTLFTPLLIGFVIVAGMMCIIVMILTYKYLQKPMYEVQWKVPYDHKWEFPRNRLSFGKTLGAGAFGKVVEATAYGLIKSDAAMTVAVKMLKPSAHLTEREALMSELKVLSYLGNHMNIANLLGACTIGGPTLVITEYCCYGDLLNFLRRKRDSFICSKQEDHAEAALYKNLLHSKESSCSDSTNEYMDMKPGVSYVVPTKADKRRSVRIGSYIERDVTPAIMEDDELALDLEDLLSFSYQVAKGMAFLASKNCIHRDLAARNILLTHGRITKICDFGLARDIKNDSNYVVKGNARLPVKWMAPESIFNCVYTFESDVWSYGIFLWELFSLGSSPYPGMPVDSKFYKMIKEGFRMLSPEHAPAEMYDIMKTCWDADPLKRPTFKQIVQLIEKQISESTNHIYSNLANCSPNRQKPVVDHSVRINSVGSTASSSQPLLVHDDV
How it was run: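 GIST430 (Δ560-576) and imatinib-resistant GIST430/654 (plus V654A; grown with 100 nM imatinib) cells were plated in IMDM/15% FCS and treated next day with serially diluted compound for 45 min. Lysates were captured on anti-total-cKIT Luminex beads overnight at 4 °C and probed for phospho-Y307. IC50 was taken from percent of 0.3% DMSO control.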

T1 sequence (P10721 544-976 V654A): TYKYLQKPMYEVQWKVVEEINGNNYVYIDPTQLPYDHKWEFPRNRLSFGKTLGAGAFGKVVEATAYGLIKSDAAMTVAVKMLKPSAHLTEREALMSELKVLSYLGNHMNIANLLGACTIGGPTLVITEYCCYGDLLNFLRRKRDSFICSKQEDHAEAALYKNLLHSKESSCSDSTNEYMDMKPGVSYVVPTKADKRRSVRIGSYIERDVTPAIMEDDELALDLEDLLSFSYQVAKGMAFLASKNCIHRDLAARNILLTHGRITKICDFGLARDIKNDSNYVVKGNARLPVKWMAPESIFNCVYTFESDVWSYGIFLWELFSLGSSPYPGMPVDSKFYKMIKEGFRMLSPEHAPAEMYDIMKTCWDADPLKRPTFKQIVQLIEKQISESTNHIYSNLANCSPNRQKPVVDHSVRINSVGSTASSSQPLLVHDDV

| SMILES | pIC50 [1] | pIC50 [2] |
| --- | --- | --- |
| COc1cc2ncc(-c3cc(NCc4ccc(-c5cnn(C)c5)cc4)ncn3)n2cc1F [A69, [6-(6-fluoro-7-methoxy-imidazo[1,2-a]pyridin-3-yl)-pyrimidin-4-yl]-[4-(1-methyl-1H-pyrazol-4-yl)-benzyl]-amine] | 7.89 | 6.62 |
| Cn1cc(-c2ccc(CNc3cc(-c4cnc5cc(OCC6CCN(CC#N)CC6)ccn45)ncn3)cc2)cn1 [A188, [4-(3-{6-[4-(1methyl-1H-pyrazol-4-yl)-benzylamino]-pyrimidin-4-yl}-imidazo[1,2-a]pyridin-7-yloxymethyl)-piperidin-1-yl]-acetonitrile] | 8.02 | 6.72 |
| Cn1cc(-c2ccc(CNc3cc(-c4cnc5cc(OCCN6CCS(=O)(=O)CC6)ccn45)ncn3)cc2)cn1 [A138, 4-[2-({3-[6-({[4-(1-methyl-1H-pyrazol-4-yl)phenyl]methyl}amino)pyrimidin-4-yl]imidazo[1,2-a]pyridin-7-yl}oxy)ethyl]-1lambda6-thiomorpholine-1,1-dione] | 8.16 | 7.19 |
| COc1ccn2c(-c3cc(NCc4ccc(-c5cn(CC(C)(C)O)nc5N)cc4)ncn3)cnc2c1 [A229, 1-[3-amino-4-(4-{[6-(7-methoxy-imidazo[1,2-a]pyridin-3-yl)-pyrimidin-4-ylamino]-methyl}-phenyl)-pyrazol-1-yl]-2-methyl-propan-2-ol] | 7.06 | 6.18 |
| COc1ccn2c(-c3cc(NCc4ccc(-c5nccc(OC)n5)cc4)ncn3)cnc2c1 [A34, 6-{7-methoxyimidazo[1,2-a]pyridin-3-yl}-N-{[4-(4-methoxypyrimidin-2-yl)phenyl]methyl}pyrimidin-4-amine] | 7.28 | 6.13 |
| Cn1cc(-c2ccc(CNc3cc(-c4cnc5cc(OCCc6nccn6C)ccn45)ncn3)cc2)cn1 [A111, (6-{7-[2-(1-methyl-1H-imidazol-2-yl)-ethoxy]imidazo[1,2-a]pyridin-3-yl}-pyrimidin-4-yl)-[4-(1-methyl-1H-pyrazol-4-yl)-benzyl]-amine] | 8.10 | 7.20 |
| Cn1cc(-c2ccc(CNc3cc(-c4cnc5cc(OCCCCN6CCC6)ccn45)ncn3)cc2)cn1 [A225, {6-[7-(4-azetidin-1-yl-butoxy)-imidazo[1,2-a]pyridin-3-yl]-pyrimidin-4-yl}-[4-(1-methyl-1H-pyrazol-4-yl)-benzyl]-am amine] | 7.82 | 7.24 |
| Cn1ncc(-c2ccc(CNc3cc(-c4cnc5cc(OCCc6nccn6C)ccn45)ncn3)cc2)n1 [A98, (6-{7-[2-(1-methyl-1H-imidazol-2-yl)-ethoxy]-imidazo[1,2-a]pyridin-3-yl}-pyrimidin-4-yl)-[4-(2-methyl-2H-[1,2,3]triazol-4-yl)-benzyl]-amine] | 8.08 | 7.01 |
| CN1CCOC[C@H]1COc1ccn2c(-c3cc(NCc4ccc(-c5cnn(C)c5)cc4)ncn3)cnc2c1 [A125, N-{[4-(1-methyl-1H-pyrazol-4-yl)phenyl]methyl}-6-(7-{[(3S)-4-methylmorpholin-3-yl]methoxy}imidazo[1,2-a]pyridin-3-yl)pyrimidin-4-amine] | 7.64 | 6.68 |
| CN1CCO[C@@H](COc2ccn3c(-c4cc(NCc5ccc(-c6cnn(C)n6)cc5)ncn4)cnc3c2)C1 [A121, {6-[7-((R)-4-methyl-morpholin-2-ylmethoxy)-imidazo[1,2-a]pyridin-3-yl]-pyrimidin-4-yl}-[4-(2-methyl-2H-[1,2,3]triazol-4-yl)-benzyl]-amine] | 8.44 | 7.47 |
| CN1CCC(CCOc2ccn3c(-c4cc(NCc5ccc(-c6cnn(C)n6)cc5)ncn4)cnc3c2)CC1 [A130, (6-{7-[2-(1-methyl-piperidin-4-yl)-ethoxy]-imidazo[1,2-a]pyridin-3-yl}-pyrimidin-4-yl)-[4-(2-methyl-2H-[1,2,3]triazol-4-yl)-benzyl]-amine] | 8.46 | 7.40 |
| Cn1cc(-c2ccc(CNc3cc(-c4cnc5cc(N)ccn45)ncn3)cc2)cn1 [A162, 6-{7-aminoimidazo[1,2-a]pyridin-3-yl}-N-{[4-(1-methyl-1H-pyrazol-4-yl)phenyl]methyl}pyrimidin-4-amine] | 8.13 | 6.74 |
| Cn1cc(-c2ccc(CNc3cc(-c4cnc5cc(OCCC[N+]6([O-])CCCC6)ccn45)ncn3)cc2)cn1 [A228, 1-[3-({3-[6-({[4-(1-methyl-1H-pyrazol-4-yl)phenyl]methyl}amino)pyrimidin-4-yl]imidazo[1,2-a]pyridin-7-yl}oxy)propyl]pyrrolidin-1-ium-1-olate] | 7.96 | 7.36 |
| Cn1ncc(-c2ccc(CNc3cc(-c4cnc5cc(N6CCCC6)ccn45)ncn3)cc2)n1 [A232, [4-(2-methyl-2H-[1,2,3]triazol-4-yl)-benzyl]-[6-(7-pyrrolidin-1-yl-imidazo[1,2-a]pyridin-3-yl)-pyrimidin-4-yl]-amine] | 7.64 | 6.77 |
| Cn1ncc(-c2ccc(CNc3cc(-c4cnc5cc(OCc6ccccn6)ccn45)ncn3)cc2)n1 [A106, [4-(2-methyl-2H-[1,2,3]triazol-4-yl)-benzyl]-{6-[7-(pyridin-2-ylmethoxy)-imidazo[1,2-a]pyridin-3-yl]-pyrimidin-4-yl}-amine] | 8.02 | 6.43 |
| Cn1cc(-c2ccc(CNc3cc(-c4cnc5cc(CCN6CCC(F)(F)C6)ccn45)ncn3)cc2)cn1 [A169, (6-{7-[2-(3,3-difluoro-pyrrolidin-1-yl)-ethyl]-imidazo[1,2-a]pyridin-3-yl}-pyrimidin-4-yl)-[4-(1-methyl-1H-pyrazol-4-yl)-benzyl]-amine] | 7.49 | 6.52 |

Next, values leading:

| pIC50 [1] | pIC50 [2] | SMILES |
| --- | --- | --- |
| 7.40 | 6.59 | Cn1ncc(-c2ccc(CNc3cc(-c4cnc5cc(OCc6cccnc6)ccn45)ncn3)cc2)n1 [A112, [4-(2-methyl-2H-[1,2,3]triazol-4-yl)-benzyl]-{6-[7-(pyridin-3-ylmethoxy)-imidazo[1,2-a]pyridin-3-yl]-pyrimidin-4-yl}-amine] |
| 7.39 | 6.60 | Cn1cc(-c2ccc(CNc3cc(-c4cnc5cc(OCCCN6CCCC6=O)ccn45)ncn3)cc2)cn1 [A145, 1-[3-({3-[6-({[4-(1-methyl-1H-pyrazol-4-yl)phenyl]methyl}amino)pyrimidin-4-yl]imidazo[1,2-a]pyridin-7-yl}oxy)propyl]pyrrolidin-2-one] |
| 7.80 | 6.85 | Cn1ncc(-c2ccc(CNc3cc(-c4cnc5cc(OCCc6cccnc6)ccn45)ncn3)cc2)n1 [A126, [4-(2-methyl-2H-[1,2,3]triazol-4-yl)-benzyl]-{6-[7-(2-pyridin-3-yl-ethoxy)-imidazo[1,2-a]pyridin-3-yl]-pyrimidin-4-yl}-amine] |
| 7.34 | 5.80 | COc1ccn2c(-c3cc(NCc4ccc(-c5cnc(C)nc5)cc4)ncn3)cnc2c1 [A41, 6-{7-methoxyimidazo[1,2-a]pyridin-3-yl}-N-{[4-(2-methylpyrimidin-5-yl)phenyl]methyl}pyrimidin-4-amine] |
| 8.14 | 7.05 | COc1ccn2c(-c3cc(NCc4ccc(-c5cnn(C6CC6)c5)cc4)ncn3)cnc2c1 [A49, [4-(1-cyclopropyl-1H-pyrazol-4-yl)-benzyl]-[6-(7-methoxy-imidazo[1,2-a]pyridin-3-yl)-pyrimidin-4-yl]-amine] |
| 7.72 | 7.59 | Cn1ncc(-c2ccc(CNc3cc(-c4cnc5cc(OCC6CCN(CC(F)F)CC6)ccn45)ncn3)cc2)n1 [A193, (6-{7-[1-(2,2-difluoro-ethyl)-piperidin-4-ylmethoxy]-imidazo[1,2-a]pyridin-3-yl}-pyrimidin-4-yl)-[4-(2-methyl-2H-[1,2,3]triazol-4-yl)-benzyl]-amine] |
| 8.42 | 6.43 | Fc1cc(N2CCCC2)ncc1CNc1cc(-c2cnc3ccccn23)ncn1 [A152, (4-fluoro-6-pyrrolidin-1-yl-pyridin-3-ylmethyl)-(6-imidazo[1,2-a]pyridin-3-yl-pyrimidin-4-yl)-amine] |
| 8.17 | 7.19 | CN1CCN(CCCOc2ccn3c(-c4cc(NCc5ccc(-c6cnn(C)c6)cc5)ncn4)cnc3c2)CC1 [A94, N-{[4-(1-methyl-1H-pyrazol-4-yl)phenyl]methyl}-6-{7-[3-(4-methylpiperazin-1-yl)propoxy]imidazo[1,2-a]pyridin-3-yl}pyrimidin-4-amine] |
| 8.04 | 6.57 | Cn1cc(-c2ccc(CNc3cc(-c4cnc5cc(Cl)ccn45)ncn3)cc2)cn1 [A82, 6-{7-chloroimidazo[1,2-a]pyridin-3-yl}-N-{[4-(1-methyl-1H-pyrazol-4-yl)phenyl]methyl}pyrimidin-4-amine] |
| 8.11 | 7.11 | Cn1cc(-c2ccc(CNc3cc(-c4cnc5cc(N6CCOCC6)ccn45)ncn3)cc2)cn1 [A180, [4-(1-methyl-1H-pyrazol-4-yl)-benzyl]-[6-(7-morpholin-4-yl-imidazo[1,2-a]pyridin-3-yl)-pyrimidin-4-yl]-amine] |
| 7.59 | 6.68 | COc1ccn2c(-c3cc(NCc4ccc(-c5cn(C)nc5C)cc4)ncn3)cnc2c1 [A25, [4-(1,3-dimethyl-1H-pyrazol-4-yl)-benzyl]-[6-(7-methoxy-imidazo[1,2-a]pyridin-3-yl)-pyrimidin-4-yl]-amine] |
| 8.11 | 6.72 | Cc1ccn2c(-c3cc(NCc4ccc(-c5cnn(C)c5)cc4)ncn3)cnc2c1 [A66, [6-(7-methyl-imidazo[1,2-a]pyridin-3-yl)-pyrimidin-4-yl]-[4-(1-methyl-1H-pyrazol-4-yl)-benzyl]-amine] |
